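Five compound concentrations were applied to cells in 96-well plates for 48 hours; endpoints were derived by simple linear interpolation of the resulting dose-response curve. The concentration for 50% growth inhibition is given as GI50. At the TGI there is no net growth.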

Among the test systems are HCC-2998 colon; RPMI-8226 leukemia; MALME-3M melanoma; A498 renal; M14 melanoma; A549 NSCLC; SNB-19 CNS; COLO 205 colon; TK-10 renal.
Assay in all cases: NCI-60 cell line screen, 48 h

Take `CC1OC(n2cc(I)c(=O)[nH]c2=O)C=CC1=O` (configuration not stated): the TGI with HCC-2998 colon turned out to be 31.5 µM; in the assay with RPMI-8226 leukemia, 38.7 µM; in the assay on MALME-3M melanoma, 28.5 µM; in the assay with A498 renal, 29.6 µM; with M14 melanoma, 30.6 µM; in the assay on A549 NSCLC, 72.6 µM. Besides, the TGI came to 32.1 µM in the assay on SNB-19 CNS, 30.7 µM in the assay with COLO 205 colon and 32.9 µM in the assay with TK-10 renal.
Regarding `CC1=C2[C@@H](c3ccccc3)C3C=CC2(c2ccccc23)N(C(=O)Nc2cccc3ccccc23)C1=O` (some centres not stated), the TGI with HCC-2998 colon, in the assay with RPMI-8226 leukemia, with MALME-3M melanoma, in the assay on A498 renal, in the assay on M14 melanoma and in the assay with A549 NSCLC was > 100 µM throughout. Also, the TGI with SNB-19 CNS and with COLO 205 colon was > 100 µM throughout.
For the compound `C[CH2][Sn]([Cl])([CH2]C)[CH2]C`, the GI50 with HCC-2998 colon was 0.354 µM; in the assay on RPMI-8226 leukemia, 0.399 µM; in the assay with MALME-3M melanoma it was 0.572 µM; with M14 melanoma, 1.27 µM; in the assay with A549 NSCLC, 1.18 µM; in the assay with SNB-19 CNS, 1.97 µM. For the same compound, the figures for the GI50 with COLO 205 colon and in the assay on TK-10 renal were 1.48 µM and 3.02 µM, respectively. The TGI is 1.66 µM in the assay with HCC-2998 colon; 9.17 µM in the assay with RPMI-8226 leukemia; 3.77 µM with MALME-3M melanoma; 5.46 µM with M14 melanoma; 5.04 µM in the assay with A549 NSCLC; 10.6 µM with SNB-19 CNS. Also, the TGI in the assay with COLO 205 colon worked out at 3.8 µM; in the assay with TK-10 renal, 6.94 µM.
Turning to `O=[N+]([O-])c1cc([N+](=O)[O-])c(C(Cl)C(Cl)c2ccccc2)cc1C(Cl)C(Cl)c1ccccc1` (configuration not stated), the TGI with HCC-2998 colon came to 3.33 µM; with RPMI-8226 leukemia, 8.38 µM; in the assay with MALME-3M melanoma, 3.31 µM; with A498 renal, 3.33 µM; with M14 melanoma, 2.93 µM; in the assay with A549 NSCLC, 4.51 µM. Also, the TGI with SNB-19 CNS was found to be 6.53 µM; with COLO 205 colon, 3.18 µM; in the assay with TK-10 renal, 4.23 µM.
As for `CO[C@]12CCC(=O)N1C=Cc1c2[nH]c2ccccc12`, the TGI in the assay on HCC-2998 colon, with RPMI-8226 leukemia, in the assay on MALME-3M melanoma, in the assay on A498 renal, with M14 melanoma and with A549 NSCLC was > 100 µM each time. The TGI in the assay with SNB-19 CNS, in the assay on COLO 205 colon and in the assay on TK-10 renal was > 100 µM each time.
On to `O=C(NCCCCCCNC(=O)NC1OCC(O)C(O)C1O)NC1OCC(O)C(O)C1O` (configuration not stated), for which the TGI in the assay with RPMI-8226 leukemia, with MALME-3M melanoma, with M14 melanoma, in the assay with A549 NSCLC, in the assay on COLO 205 colon and with TK-10 renal was > 100 µM throughout.
On to `CN1CCc2cc(O)c3cc2C1Cc1ccc(cc1)Oc1cc(ccc1O)CC1c2c(cc4c(c2O3)OCO4)CCN1C` (configuration not stated), for which the TGI was 41.7 µM in the assay on HCC-2998 colon; 32.2 µM in the assay on M14 melanoma; > 100 µM with A549 NSCLC; > 100 µM in the assay with SNB-19 CNS; 28.8 µM in the assay on COLO 205 colon; 92.2 µM with TK-10 renal.
In the case of `CCOC(=O)NN(C(=O)OCC)C(C(=O)c1ccc(Cl)cc1)=C1NCCN1`, the TGI with HCC-2998 colon, in the assay on MALME-3M melanoma, in the assay on A498 renal, in the assay on M14 melanoma, in the assay on A549 NSCLC and with SNB-19 CNS was > 100 µM in each case. Besides, the TGI in the assay with COLO 205 colon and with TK-10 renal was > 100 µM each time.
`CCC[CH2][Ge]([CH2]CCC)([CH2]CCC)[O]C(=O)C(OC(C)=O)c1ccccc1` (configuration not stated): the GI50 was 0.53 µM in the assay with HCC-2998 colon; 0.297 µM in the assay on RPMI-8226 leukemia; 1.16 µM in the assay on MALME-3M melanoma; 11.4 µM in the assay with A498 renal; 1.05 µM with M14 melanoma; 3.37 µM in the assay on A549 NSCLC. Also, the GI50 is 12 µM with SNB-19 CNS, 6.37 µM in the assay on COLO 205 colon and 8.06 µM in the assay with TK-10 renal. For the same compound, the TGI with HCC-2998 colon turned out to be 5.63 µM; in the assay on RPMI-8226 leukemia it was 4.82 µM; in the assay on MALME-3M melanoma it was 19.4 µM; in the assay on A498 renal, 24.3 µM; in the assay with M14 melanoma it was 6.57 µM; in the assay on A549 NSCLC, 30.9 µM. In addition, the TGI in the assay with SNB-19 CNS was 36.9 µM; in the assay on COLO 205 colon it was 20.9 µM; in the assay on TK-10 renal, 54.3 µM.
For the compound `CC(=O)OCc1c(C)c2ccccc2n1C(C)=O`, the TGI in the assay with HCC-2998 colon is > 100 µM; with MALME-3M melanoma, 73.7 µM; with A498 renal it was > 100 µM; in the assay with M14 melanoma, > 100 µM; in the assay with A549 NSCLC, > 100 µM; with SNB-19 CNS, > 100 µM. The TGI in the assay with COLO 205 colon and in the assay with TK-10 renal was > 100 µM each time.
For the compound `N#Cc1nc(Nc2ccc(Cl)cc2)sc1N`, the TGI is 14.8 µM in the assay on HCC-2998 colon; > 65.6 µM in the assay on RPMI-8226 leukemia; 66.1 µM with MALME-3M melanoma; 56 µM in the assay with A498 renal; > 85.7 µM with M14 melanoma; > 67.1 µM with A549 NSCLC. Besides, the figures for the TGI with SNB-19 CNS, in the assay on COLO 205 colon and in the assay on TK-10 renal were > 100 µM, 47.7 µM and > 76.6 µM, respectively.
For `Cc1ccc(S(=O)(=O)NC(=O)C#CCOC2CCCCO2)cc1` (configuration not stated), the TGI in the assay with HCC-2998 colon, in the assay on RPMI-8226 leukemia, in the assay with MALME-3M melanoma, in the assay on A498 renal, in the assay on M14 melanoma and in the assay on A549 NSCLC was > 100 µM in each case. In addition, the TGI in the assay with SNB-19 CNS and in the assay with TK-10 renal was > 100 µM in each case.
As for `O=C(CC(=O)c1cccc([N+](=O)[O-])c1)C(=O)Nc1nc([N+](=O)[O-])cs1`, the TGI in the assay on HCC-2998 colon, in the assay with RPMI-8226 leukemia, in the assay with MALME-3M melanoma, in the assay with A498 renal, with M14 melanoma and in the assay with A549 NSCLC was > 100 µM throughout. For the same compound, the TGI with SNB-19 CNS, in the assay on COLO 205 colon and in the assay with TK-10 renal was > 100 µM each time.
As for `N#CC(C(=O)C(=O)Nc1ccc(Cl)c(Cl)c1)c1ccc(Cl)cc1` (configuration not stated), the TGI in the assay on HCC-2998 colon, in the assay on RPMI-8226 leukemia, in the assay with MALME-3M melanoma, with A498 renal, with M14 melanoma and in the assay with A549 NSCLC was > 100 µM in each case. Further, the TGI in the assay with SNB-19 CNS, in the assay with COLO 205 colon and in the assay on TK-10 renal was > 100 µM each time.
As to `COc1ccc2c([nH]c3cc(O)c(C)cc32)c1CC=C(C)C`, the GI50 in the assay with HCC-2998 colon is 5.49 µM; in the assay with MALME-3M melanoma, 17.3 µM; in the assay with M14 melanoma, 1.62 µM; in the assay on A549 NSCLC it was 8.47 µM. Also, the TGI was 14.5 µM in the assay with HCC-2998 colon; > 25 µM in the assay with RPMI-8226 leukemia; > 25 µM in the assay on MALME-3M melanoma; 9.29 µM in the assay on M14 melanoma; > 25 µM in the assay on A549 NSCLC; > 25 µM in the assay with SNB-19 CNS. For the same compound, in the assay on COLO 205 colon, the TGI is > 25 µM.
With `COC(=O)C1=C(C)N(NC(=O)c2cccc(Cl)c2)C(C)(O)C12CCOC2=O` (configuration not stated), the TGI in the assay with HCC-2998 colon, with RPMI-8226 leukemia, in the assay on MALME-3M melanoma, with A498 renal, in the assay on M14 melanoma and in the assay on A549 NSCLC was > 100 µM each time. Moreover, the TGI in the assay on SNB-19 CNS is > 100 µM.
Regarding `COc1cc(C2C(C(=O)OCc3ccccc3)=C(C)NC(C)=C2C(=O)OCc2ccccc2)cc(OC)c1OC`, the GI50 was 2.09 µM in the assay on RPMI-8226 leukemia, 1.75 µM in the assay on A498 renal, 3.6 µM with A549 NSCLC and 5.73 µM in the assay on SNB-19 CNS. Also, the TGI with RPMI-8226 leukemia, with A498 renal, in the assay with A549 NSCLC and with SNB-19 CNS was > 100 µM in each case.
In the case of `C/C=C/C=C\C(=O)C1c2cccc(O)c2C(=O)c2c(O)cc(C)cc21` (configuration not stated), the TGI was found to be 1.6 µM with HCC-2998 colon; 7.26 µM in the assay with RPMI-8226 leukemia; 3.12 µM in the assay with MALME-3M melanoma; 7.76 µM in the assay with A498 renal; 2.13 µM with A549 NSCLC; 2.5 µM in the assay on SNB-19 CNS. The TGI amounted to 2.99 µM in the assay on COLO 205 colon and 3.76 µM with TK-10 renal.
As to `CNC(=O)OCc1cc2ccncc2c2c1[nH]c1ccccc12`, the TGI in the assay on HCC-2998 colon, in the assay on RPMI-8226 leukemia, in the assay on MALME-3M melanoma, in the assay on M14 melanoma, with A549 NSCLC and in the assay on SNB-19 CNS was > 100 µM in each case. For the same compound, the TGI with COLO 205 colon and with TK-10 renal was > 100 µM in each case.
As for `C[C@]12CC/C(=N\OC(=O)Nc3ccccc3)C=C1CC[C@@H]1C2CC[C@@]2(C)C1CC[C@@H]2OC(=O)Nc1ccccc1` (some centres not stated), the TGI with HCC-2998 colon, in the assay with RPMI-8226 leukemia, in the assay with A498 renal, in the assay with M14 melanoma, in the assay on A549 NSCLC and in the assay on SNB-19 CNS was > 100 µM throughout. Also, the TGI in the assay on COLO 205 colon and in the assay on TK-10 renal was > 100 µM each time.
For `Cc1cn2c(/C=N/N=C(N)N)c(-c3cc(Cl)sc3Cl)nc2s1`, the GI50 with HCC-2998 colon was 0.888 µM; with RPMI-8226 leukemia it was 0.792 µM; with M14 melanoma it was 0.874 µM; in the assay with SNB-19 CNS, 1.84 µM; in the assay with TK-10 renal, 1.15 µM. In addition, the TGI was 1.6 µM in the assay with HCC-2998 colon; 1.73 µM with RPMI-8226 leukemia; 1.56 µM in the assay on M14 melanoma; > 50 µM in the assay on SNB-19 CNS; 2.95 µM with TK-10 renal.

The record behind these values is PubChem BioAssay (NCI).
